Data set [1] can be described thus: Auto-oxidation of other SH-containing compounds in the presence and absence of the complex (amperometric silver titration). The settings on record: 37° C. Format: physicochemical. The method, then:
In these Figures, the axis of abscissa represents the incubating time in minutes, and the axis of ordinates, the SH redidual ratio (%) of the above compounds.
The above residual ratio is measured after dissolving the sample in a sodium phosphate buffer (0.1 m, pH 8.0) in the presence of copper sulfate (5 × 10^-^7 m), and incubating at 37° C. The SH content is measured by an amperometric silver titration.

The nature of data set [2]: Stability of the thiol group to auto-oxidation: residual ratio of the active SH group (residual activity). Format: physicochemical. The settings on record: 40° C.
Method: The residual ratio of the active SH group, or simply called the residual activity, as used in this application is determined as follows:
The complex of this invention and other SH-containing compounds are incubated at a certain termperature in a sodium phosphate buffer (0.1 M, pH 8.0). Aliquotes are withdrawn at intervals and immediately the active SH group contents of the samples are determined. The maximum content obtained is made 100 (%), and the active SH group content of each of the samples is expressed in percentage based on this maximum content.
Data set [3] has as its system damage of liver induced by D-galactosamine hydrochloride. Briefly: Prophylactic activity on damage of liver induced by D-galactosamine hydrochloride. Format: in vivo, Wister female rats. The settings on record: administered beforehand; summary of Table 1.
Method: The damage of liver was induced by administering D-galactosamine hydrochloride.
Wister female rats weighing 100 to 120 g (10 in a group) which had been fasted for 2 hours were used. Three groups were prepared. […] Still another group was administered only with 1 ml. of an isotonic sodium chloride solution. One hour after the administration, a solution obtained by dissolving 50 mg of D-glactosamine hydrochloride in 1 ml. of an isotonic sodium chloride solution and adjusting the pH of the solution to 7.0 with 0.1N sodium hydroxide was administered intraperitoneally.
After a lapse of 22 hours from the administration of D-galactosamine hydrochloride, blood was extracted from the abdominal aorta. GOT, GPT, bilirubin, and glucose in the plasma were measured. Furthermore, the liver was cut out, and its lipid and neutral fat were measured.
The conditions of data set [4]: literature report; cited from earlier work.

The values below come from patent US4009264A, “Complexes of polysaccharides or derivatives thereof with reduced glutathione and process for preparing said complexes” (Meito Sangyo Kabushiki Kaisha, priority 1975, dated 1977).

Consider `NCCS` [cysteamine], for which the “SH residual ratio of cysteamine alone” value in data set [1] (60 minutes, sodium phosphate buffer pH 8.0, copper sulfate 5 × 10^-7 M) is recorded as “zero”.

As for `CC(C)(S)[C@@H](N)C(=O)O` [penicillamine], the “SH residual ratio of penicillamine alone” value in data set [1] (60 minutes, pH 8.0, copper sulfate 5 × 10^-7 M) is “about 15%”. Regarding `N[C@@H](CCC(=O)N[C@@H](CS)C(=O)NCC(=O)O)C(=O)O` [reduced glutathione], in data set [2] (after 6 hours, sodium phosphate buffer 0.1 M pH 8.0, FeCl3 1.2 × 10^-5 M), the “residual ratio of the active SH group (residual activity of the reduced glutathione)” value was “about 40%”. Also, the “residual ratio of the active SH group” value in data set [2] (after 8 hours, sodium phosphate buffer 0.1 M pH 8.0) was “about 20%”. In addition, in data set [1] (180 minutes, final concentration 1 × 10^-3 M, pH 8.0, copper sulfate 5 × 10^-7 M), the “SH residual ratio of reduced glutathione alone” value is “about 20%”. Further, the “inhibition of the D-galactosamine-induced increase (GOT, GPT, bilirubin, liver lipid, neutral fat) or decrease (glucose)” value in data set [3] is reported as “inhibited”.

Consider “complex of dextran and insulin: literature complex of activated dextran and insulin (Acta Chem. Scand. 25, 1855-1859, 1971)”, for which the “activity relative to the free insulin” value in data set [4] was 1/36.
